Data published in PMC7044277 (Nature Communications, 2020).
“And” between values parts separate entries of the source, which are not always exact repeats. Equal entries are not always repeated.

Key:
[1] = target: DRD3 (Homo sapiens, UniProt P35462); test: β-arrestin2 recruitment (Tango); assay type: cell-based; settings: DRD3; Tango; read-out: EC50 ± SEM
[2] = target: T1, DRD2 (D2 long receptor) (Homo sapiens, UniProt P14416); test: Gαi/o-mediated cAMP inhibition (GloSensor split-luciferase cAMP reporter), HEK293T; assay type: cell-based; settings: for EC50: agonist, Gαi/o-mediated cAMP inhibition, read-out: EC50 ± SEM; for Response, Fig_S11b dose-response: individual replicates;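 on all read-outs here: compounds applied 15 min at room temperature, then luciferin plus 400 nM isoproterenol to raise cAMP through endogenous β2-adrenergic receptors, luminescence read 15 min later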
T1 sequence (P14416 whole entry): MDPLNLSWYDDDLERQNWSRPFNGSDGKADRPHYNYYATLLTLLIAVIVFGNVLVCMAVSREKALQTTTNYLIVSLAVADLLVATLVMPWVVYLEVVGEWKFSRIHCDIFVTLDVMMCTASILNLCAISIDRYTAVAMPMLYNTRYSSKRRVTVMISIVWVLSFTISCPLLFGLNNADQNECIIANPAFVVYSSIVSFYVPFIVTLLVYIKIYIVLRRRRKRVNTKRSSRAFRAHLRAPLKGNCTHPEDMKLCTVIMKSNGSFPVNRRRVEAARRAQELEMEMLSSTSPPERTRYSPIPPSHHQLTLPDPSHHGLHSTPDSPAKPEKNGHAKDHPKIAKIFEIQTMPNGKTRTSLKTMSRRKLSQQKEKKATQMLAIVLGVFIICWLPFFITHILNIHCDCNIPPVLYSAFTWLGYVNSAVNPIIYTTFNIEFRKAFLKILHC

[3] = target: T2, DRD4 (D4.4 variant) (Homo sapiens, UniProt P21917); test: β-arrestin2 recruitment (Tango); assay type: cell-based; settings: DRD4; Tango; read-out: EC50 ± SEM
T2 sequence (P21917 1-419): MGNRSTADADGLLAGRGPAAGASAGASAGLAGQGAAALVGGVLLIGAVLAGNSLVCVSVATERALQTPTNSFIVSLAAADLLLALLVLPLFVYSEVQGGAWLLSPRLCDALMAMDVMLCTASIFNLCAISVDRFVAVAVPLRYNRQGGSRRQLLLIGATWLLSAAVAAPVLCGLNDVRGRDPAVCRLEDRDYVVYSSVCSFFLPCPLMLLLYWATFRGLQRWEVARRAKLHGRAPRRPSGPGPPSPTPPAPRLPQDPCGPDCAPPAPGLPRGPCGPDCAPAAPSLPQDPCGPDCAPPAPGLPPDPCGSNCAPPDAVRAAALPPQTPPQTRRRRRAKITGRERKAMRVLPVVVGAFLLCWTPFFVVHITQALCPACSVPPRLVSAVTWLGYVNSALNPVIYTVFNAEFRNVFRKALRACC

[4] = target: T2, DRD4 (D4.4 variant); test: Gαi/o-mediated cAMP inhibition (GloSensor); assay type: cell-based; settings: DRD4; agonist, cAMP inhibition; read-out: EC50 ± SEM
[5] = target: DRD2 (D2 long receptor) wild-type (Homo sapiens, UniProt P14416); test: Radioligand competition binding, [3H]-N-methylspiperone, HEK293T membranes; settings: for Ki: DRD2, [3H]-methylspiperone (0.8-1.0 nM), read-out: Ki
DRD2 (D2 long receptor) wild-type, sequence (P14416 whole entry): as the sequence (P14416 whole entry) above

[6] = target: DRD3 wild-type (Homo sapiens, UniProt P35462); test: Radioligand competition binding, [3H]-N-methylspiperone; settings: for Ki: DRD3, [3H]-methylspiperone (0.8-1.0 nM), read-out: Ki; for pKi ± SEM: DRD3 wild-type
DRD3 wild-type, sequence (P35462 whole entry): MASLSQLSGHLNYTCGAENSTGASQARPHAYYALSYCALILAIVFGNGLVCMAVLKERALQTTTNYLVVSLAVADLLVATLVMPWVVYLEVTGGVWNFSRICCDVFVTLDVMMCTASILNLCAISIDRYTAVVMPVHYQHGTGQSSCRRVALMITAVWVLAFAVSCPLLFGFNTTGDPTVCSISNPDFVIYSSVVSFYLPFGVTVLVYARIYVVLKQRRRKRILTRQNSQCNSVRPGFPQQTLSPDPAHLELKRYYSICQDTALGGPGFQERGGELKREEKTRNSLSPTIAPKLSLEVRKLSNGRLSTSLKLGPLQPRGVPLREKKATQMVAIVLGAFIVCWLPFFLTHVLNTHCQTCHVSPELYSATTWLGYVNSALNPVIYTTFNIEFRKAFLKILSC

[7] = target: T3, DRD4 (D4.4 variant) wild-type (Homo sapiens, UniProt P21917); test: as above; settings: DRD4; [3H]-methylspiperone (0.8-1.0 nM); read-out: Ki
T3 sequence (P21917 1-419): T2 sequence (P21917 1-419)

[8] = target: T4, DRD3 F1063.28A (Homo sapiens, UniProt P35462, F106A); test: biochemical; assay type: binding; settings: DRD3 F1063.28A; read-out: Ki
T4 sequence (P35462 whole entry F106A): as the sequence (P35462 whole entry) above, with F106A counted along it

[9] = target: T1, DRD2 (D2 long receptor); test: β-arrestin2 recruitment (Tango), HTLA cells; assay type: cell-based; settings: for EC50 / Emax relative to quinpirole response: DRD2; for EC50: β-arrestin2 recruitment (Tango), read-out: EC50 ± SEM; for Emax relative to quinpirole response: Tango; for Response, Fig_S11c dose-response: individual replicates
[10] = target: T5, DRD2 F1103.28A (Homo sapiens, UniProt P14416, F110A); assay type: binding; parameters: expressed in transfected cells; host or cells: HEK293T (ATCC CRL-11268); settings: DRD2 F1103.28A; for Ki: read-out: Ki
T5 sequence (P14416 whole entry F110A): as the sequence (P14416 whole entry) above, with F110A counted along it

[11] = target: T6, DRD2 F1103.28L (Homo sapiens, UniProt P14416, F110L); test: β-arrestin2 recruitment (Tango), mutant; assay type: cell-based
T6 construct: expressed in transfected cells; host or cells: HEK293T (ATCC CRL-11268)
T6 sequence (P14416 whole entry F110L): as the sequence (P14416 whole entry) above, with F110L counted along it

[12] = target: T5, DRD2 F1103.28A; test: Gαi/o-mediated cAMP inhibition (GloSensor), mutant; assay type: cell-based; parameters: expressed in transfected cells; host or cells: HEK293T (ATCC CRL-11268)
[13] = target: T4, DRD3 F1063.28A; test: cell-based; assay type: cell-based; settings: DRD3 F1063.28A; Tango; read-out: EC50 ± SEM
[14] = target: T5, DRD2 F1103.28A; test: β-arrestin2 recruitment (Tango), mutant; assay type: cell-based; parameters: expressed in transfected cells; host or cells: HEK293T (ATCC CRL-11268)
[15] = target: T6, DRD2 F1103.28L; test: Gαi/o-mediated cAMP inhibition (GloSensor), mutant; assay type: cell-based; settings: DRD2 F1103.28L (b138 head prints DRD2 F1063.28L)

DRD3, sequence (P35462 whole entry): as the sequence (P35462 whole entry) above

## CCOc1cccc2cc(C(C)NCC(C)(C)O)oc12 (racemic) [O4LE2]
[1]
  EC50: > 10 µM
[2]; DRD2
  EC50: > 10 µM
[3]
  EC50: > 10 µM
[4]
  EC50: > 10 µM
[5]
  Ki: > 10 µM
[6]
  Ki: > 10 µM
[7]
  Ki: > 10 µM
[8]
  Ki: > 10 µM
[9]
  EC50: > 10 µM
[10]
  Ki: > 10 µM

## CCOc1cccc2cc(C(C)NCC3(O)CC3)oc12.Cl (racemic) [O4LE3]
[1]
  EC50: > 10 µM
[2]; DRD2
  EC50: > 10 µM
[3]
  EC50: > 10 µM
[11]
  EC50: > 10 µM
[4]
  EC50: > 10 µM
[12]
  EC50: > 10 µM
[5]
  Ki: > 10 µM
[13]
  EC50: > 10 µM
[6]
  Ki: 4.37 µM
  pKi ± SEM: 5.36±0.31
[14]
  EC50: > 10 µM
[7]
  Ki: > 10 µM
[15]
  EC50: > 10 µM
[8]
  Ki: > 10 µM
[9]
  Emax relative to quinpirole response: 9.29%
  EC50: 8.85 ± 2.62 µM
[10]
  Ki: > 10 µM

## CCOc1cccc2cc(C(C)NCCO)oc12 (stereo not shown) [O4LE1]
[1]
  EC50: > 10 µM
[2]; DRD2
  EC50: > 10 µM
[3]
  EC50: > 10 µM
[4]
  EC50: > 10 µM
[5]
  Ki: > 10 µM
[6]
  Ki: > 10 µM
[7]
  Ki: > 10 µM
[8]
  Ki: > 10 µM
[9]
  EC50: > 10 µM
[10]
  Ki: > 10 µM

## CCCCOc1cccc2cc(C(C)NCC3(O)CCCCC3)oc12.Cl (stereo not shown) [O6LE6]
[1]
  EC50: > 10 µM
[2]; DRD2
  EC50: 0.0464 ± 0.0155 µM
[2]; DRD2, cAMP inhibition
  Emax relative to quinpirole response: 96.65%
[2]; Log[Drug] -5
  Response, Fig_S11b dose-response: 81.0159 and 81.9991 and 95.2013 and 90.5911 and 100.378 and 91.8314 and 90.3639 and 94.9855 and 86.3213
[2]; Log[Drug] -5.52
  Response, Fig_S11b dose-response: 88.5768 and 95.2247 and 77.4579 and 98.4012 and 97.1899 and 97.626 and 96.6191 and 98.263 and 92.5248
[2]; Log[Drug] -6
  Response, Fig_S11b dose-response: 91.3624 and 86.7743 and 72.7996 and 95.3198 and 99.2054 and 99.6124 and 91.2428 and 94.603 and 88.8234
[2]; Log[Drug] -6.52
  Response, Fig_S11b dose-response: 80.2434 and 83.1695 and 87.1255 and 85.3392 and 85.0097 and 83.4496 and 88.4512 and 85.5769 and 83.1472
[2]; Log[Drug] -7
  Response, Fig_S11b dose-response: 58.0056 and 50.7491 and 42.2987 and 73.1202 and 72.0543 and 69.6996 and 76.9851 and 77.9363 and 79.6216
[2]; Log[Drug] -7.52
  Response, Fig_S11b dose-response: 45.2247 and 26.7088 and 25.0468 and 53.9826 and 53.3236 and 57.1802 and 56.5964 and 48.0046 and 46.7638
[2]; Log[Drug] -8
  Response, Fig_S11b dose-response: 27.6217 and 13.9045 and 1.873 and 27.4516 and 30.7752 and 36.8798 and 38.172 and 42.1216 and 42.4628
[2]; Log[Drug] -8.52
  Response, Fig_S11b dose-response: 12.8745 and -2.8324 and -17.6966 and 25 and 13.7985 and 29.6899 and 21.5778 and 11.2386 and 28.598
[2]; Log[Drug] -9
  Response, Fig_S11b dose-response: 19.5459 and 15.9176 and 4.8221 and 21.5698 and 25.5426 and 29.7481 and 11.342 and 13.0583 and 27.4194
[2]; Log[Drug] -11
  Response, Fig_S11b dose-response: 6.507 and 4.611
[2]; Log[Drug] -11.52
  Response, Fig_S11b dose-response: 28.839 and 31.7182 and 13.2022 and 1.376 and -1.3857 and 16.4244 and 10.2357 and 2.895 and 29.146
[2]; Log[Drug] -12
  Response, Fig_S11b dose-response: 23.5955 and 3.886 and -4.2135 and -2.9264 and -5.2713 and 2.829 and 6.638 and 20.6162
[3]
  EC50: > 10 µM
[4]
  EC50: > 10 µM
[5]
  Ki: 2.04 µM
[5]; DRD2 wild-type
  pKi ± SEM: 5.69±0.06
[6]
  Ki: 0.85 µM
  pKi ± SEM: 6.07±0.01
[7]
  Ki: > 10 µM
[9]
  Emax relative to quinpirole response: 83.11%
  EC50: 0.557 ± 0.129 µM
[9]; Fig_S11c, Log[Drug] -5, replicate values
  response, Fig_S11c dose-response source data: 102.612 and 76.914 and 118.815 and 128.686 and 107.344 and 93.7459 and 91.4018 and 94.1354
[9]; Log[Drug] -6.52
  Response, Fig_S11c dose-response: 31.2199 and 46.2944 and 28.6852
[9]; Log[Drug] -7
  Response, Fig_S11c dose-response: 11.3874 and 10.0089 and 10.6537 and 8.17 and 16.7384 and 23.3506 and 16.3825 and 16.4206 and 21.2486
[9]; Log[Drug] -7.52
  Response, Fig_S11c dose-response: 2.983 and 1.764 and 4.002 and -3.309 and -7.696 and -0.6325 and 11.3698 and 6.994 and 12.6997
[9]; Log[Drug] -8
  Response, Fig_S11c dose-response: 3.216 and 0.7671 and -0.1186 and 4.58 and -7.813 and 8.0383 and 4.755 and 0.516 and 2.286
[9]; Log[Drug] -8.52
  Response, Fig_S11c dose-response: 2.679 and 1.071 and -1.473 and 0.4627 and -3.045 and 4.511 and 0.1556 and -1.011
[9]; Log[Drug] -9
  Response, Fig_S11c dose-response: 0.7411 and 0.1816 and 1.971 and -2.53 and -2.659 and 6.978 and 2.24 and -0.7813 and 0.4791
[9]; Log[Drug] -9.52
  Response, Fig_S11c dose-response: 1.675 and 0.3261 and 1.23 and 1.988 and 0.5154 and 6.132 and 2.922 and -0.3739 and -1.362
[9]; Log[Drug] -10
  Response, Fig_S11c dose-response: 0.7745 and 3.454 and 0.4706 and -6.955 and -3.6985 and -1.1362 and 1.072 and 0.3907 and -1.333
[9]; Log[Drug] -10.52
  Response, Fig_S11c dose-response: 0.1927 and 0.4854 and 0.3409 and -1.124 and 8.703 and 5.11 and 0.478 and 0.806 and 3.44
[9]; Log[Drug] -11
  Response, Fig_S11c dose-response: 0.4891 and -0.1075 and 0.05188 and -6.3018 and 5.0836 and -3.93 and -2.3709 and 4.648 and -1.497
[9]; Log[Drug] -11.52
  Response, Fig_S11c dose-response: 2.264 and 2.713 and 0.6374 and -3.324 and 3.804 and -6.217 and 0.5754 and 2.325 and 0.9369
[9]; Log[Drug] -12
  Response, Fig_S11c dose-response: 0.04817 and -0.3928 and 5.406 and 4.214 and -4.302 and -2.66 and 3.553 and -0.8933
[10]
  pKi ± SEM: 6.53±0.31
  Ki: 0.3 µM

## CCOc1cccc2cc(C(C)NCc3ccccc3)oc12.Cl (stereo not shown) [O4LE9]
[1]
  EC50: > 10 µM
[2]; DRD2
  EC50: > 10 µM
[3]
  EC50: > 10 µM
[4]
  EC50: > 10 µM
[5]
  Ki: > 10 µM
[6]
  Ki: 5.88 µM
  pKi ± SEM: 5.23±0.25
[7]
  Ki: > 10 µM
[9]
  Emax relative to quinpirole response: 19.73%
  EC50: 5.37 ± 0.964 µM
[10]
  pKi ± SEM: 5.28±0.02
  Ki: 5.25 µM
